# Test results: article PMC12661400, “Oral bioavailable ITRI-148 degrades androgen receptor variants and overcomes antiandrogen resistance in advanced prostate cancer” (Neoplasia (New York, N.Y.), 2025)
# Columns and labels:
# [1] = Repeated-dose toxicity study: hematology; assay type: in vivo, Sprague-Dawley rats; details: rats
# Procedure: Repeated-dose toxicity and toxicokinetic studies
# Repeated-dose oral toxicity study and toxicokinetic (TK) profiling was conducted in Sprague-Dawley rats. ITRI-148 was administered once daily using oral gavage at doses of 100, 300, 600, and 1000 mg/kg/day for 7 consecutive days, followed by a 7-day recovery period. Each dose group comprised 3 animals designated for toxicokinetic (TK) analysis and 6 animals for dose-range finding (DRF) evaluation. Clinical observations, body weights, and food consumption were monitored daily throughout the dosing and recovery periods. […]
# All samples were analyzed in duplicate. Hematology and serum clinical chemistry analyses were performed on Day 7 (end of dosing) and Day 14 (end of recovery). […]
# All procedures were conducted in compliance with institutional animal care and use guidelines. […]
# Targeting androgen receptor and the variants by an orally bioavailable
# Proteolysis Targeting Chimeras compound in castration resistant prostate cancer
# [2] = In vitro stability in plasma; assay type: in vitro ADME, mouse; details: mice plasma
# Procedure: The stability of ITRI-148 was assessed in plasma across four species: humans, dogs, rats, and mice. ITRI-148 added to pre-warmed plasma at 1 μM was maintained at the designated temperature, and aliquots were collected at 0, 0.5, 1, 2, and 4 hours after incubation. At each time point, 20 μL of the samples was taken to terminate the reaction, followed by LC-MS/MS analysis to determine the remaining compound concentration. Data from duplicated experiments was calculated and presented as mean ± SD.
# [3] = Metabolic stability in mouse liver microsomes; assay type: in vitro ADME
# Procedure: The metabolic stability of all PROTAC compounds in the screening phase (Table 1) was evaluated using mouse liver microsomes. Incubations were performed at 37 °C in phosphate buffer (pH 7.4) containing NADPH (1 mM), 0.5 mg/mL microsomal protein and 1 μM ITRI-148 (0.25 % DMSO) for 0, 5, 20, or 30 minutes, followed by quenching with acetonitrile (1:3, v/v) for HPLC analysis. To evaluate the species-specific metabolism of ITRI-148, its stability was assessed in liver microsomes from human, dog, rat, and mouse using same incubation conditions as above, with the time extending to 0, 15, 30, 45, and 60 minutes, followed by acetonitrile quenching (1:10) and LC-MS/MS analysis.
# [4] = system: CWR22Rv1 xenografts; experiment: Hormone-intact CWR22Rv1 xenograft study; assay type: in vivo
# Source text: Immunodifficient male CB-17 SCID mice (CB17/Icr-Prkdc^scid/IcrIcoCrlBltw) and NOD SCID mice (NOD.CB17-Prkdc^scid/NCrCrlBltw) mice at four to six weeks of age were purchased from BioLASCO Taiwan Co., Ilan, Taiwan. All mice were housed in conventional cages in the AAALAC Full Accreditation (2011) in Industrial Technology Research Institute and were allowed to acclimatize and recover from shipping-related stress for one week prior to the study. The health of the mice was monitored by daily observations. Animals were kept in rooms at temperature of 22–26°C with 40–70 % humidity, positive pressure, 60 % air recirculation, ventilation rate 15–20 changes per hour, and a controlled light-dark cycle (12–12 hours). The order and location of each animal cage was randomly assigned to minimize potential confounders. CWR22Rv1 cells (5 × 10^6) were suspended in 100 μL of PBS with 30 % Matrigel and subcutaneously implanted into the right flank of male CB-17 SCID mice. Tumors were measured with calipers, and tumor size was calculated as follows: tumor volume (V) = (L × S^2)/2 (L, longest diameter, mm; S, shortest diameter, mm). When mean tumor volume reached 150–200 mm^3, the mice were randomly assigned into indicated groups (n = 5-6/ group) and the day of initiating treatments was assigned as day 0. VCaP cells (5 × 10⁶) suspended in 50 % Matrigel were subcutaneously implanted into male NOD SCID mice. […] Tumor size and body weight of the animals were monitored and recorded two to three times per week. […] The drug antitumor efficacy was presented as percentages of TGI of each tested animal, calculated as follows: [1 − (final tumor volume ^treated group – initial tumor volume ^treated group) / (final tumor volume ^vehicle group – initial tumor volume ^vehicle group)] × 100. Body weight of each mouse was also compared to that on the first day of treatment (day 0) and expressed as a percentage of day 0 value. […] Statistical analysis of the differences between two drug and vehicle treated groups was determined by two-tailed Student’s t-test.
# [5] = PO 100 mg/kg/day 7 days, Day 14 (recovery)
# [6] = PO 300 mg/kg/day 7 days, Day 14 (recovery)
# [7] = PO 600 mg/kg/day 7 days, Day 14 (recovery)
# [8] = PO 1000 mg/kg/day 7 days, Day 7
# [9] = PO 1000 mg/kg/day 7 days, Day 14 (recovery)
smiles,measurement,setting,value
O=C1CCC(N2C(=O)c3cccc(NCC(=O)N4CCC(N5CCC(C#Cc6ccc(C7CCN(C8=Nn9c(nnc9C(F)(F)F)CC8)CC7)cc6)CC5)CC4)c3C2=O)C(=O)N1 (stereo not shown) [ITRI-148],HGB,"[1]; PO 100 mg/kg/day 7 days, Day 7",20.3 ± 0.2 g/dL
same,PLT,"[1]; PO 100 mg/kg/day 7 days, Day 7",915 ± 368 x103 cells/µL
same,RBC,"[1]; PO 100 mg/kg/day 7 days, Day 7",7.51 ± 0.13 x106 cells/µL
same,WBC,"[1]; PO 100 mg/kg/day 7 days, Day 7",8.72 ± 2.37 x103 cells/µL
same,HGB,[1]; [5],21.9 ± 3.2 g/dL
same,PLT,[1]; [5],1049 ± 231 x103 cells/µL
same,RBC,[1]; [5],8.18 ± 1.17 x106 cells/µL
same,WBC,[1]; [5],7.52 ± 5.51 x103 cells/µL
same,HGB,"[1]; PO 300 mg/kg/day 7 days, Day 7",20 ± 1.4 g/dL
same,PLT,"[1]; PO 300 mg/kg/day 7 days, Day 7",956 ± 108 x103 cells/µL
same,RBC,"[1]; PO 300 mg/kg/day 7 days, Day 7",7.15 ± 0.4 x106 cells/µL
same,WBC,"[1]; PO 300 mg/kg/day 7 days, Day 7",8.19 ± 2.89 x103 cells/µL
same,HGB,[1]; [6],24.1 ± 0.4 g/dL
same,PLT,[1]; [6],1128 ± 236 x103 cells/µL
same,RBC,[1]; [6],8.91 ± 0.17 x106 cells/µL
same,WBC,[1]; [6],9.56 ± 1.57 x103 cells/µL
same,HGB,"[1]; PO 600 mg/kg/day 7 days, Day 7",20.6 ± 1.9 g/dL
same,PLT,"[1]; PO 600 mg/kg/day 7 days, Day 7",986 ± 252 x103 cells/µL
same,RBC,"[1]; PO 600 mg/kg/day 7 days, Day 7",7.51 ± 0.53 x106 cells/µL
same,WBC,"[1]; PO 600 mg/kg/day 7 days, Day 7",8.68 ± 4.58 x103 cells/µL
same,HGB,[1]; [7],21.6 ± 0.8 g/dL
same,PLT,[1]; [7],1022 ± 446 x103 cells/µL
same,RBC,[1]; [7],7.87 ± 0.45 x106 cells/µL
same,WBC,[1]; [7],5.27 ± 2.39 x103 cells/µL
same,HGB,[1]; [8],20.7 ± 1.3 g/dL
same,PLT,[1]; [8],892 ± 66 x103 cells/µL
same,RBC,[1]; [8],7.52 ± 0.31 x106 cells/µL
same,WBC,[1]; [8],7.48 ± 2.72 x103 cells/µL
same,HGB,[1]; [9],21.6 ± 1 g/dL
same,PLT,[1]; [9],1140 ± 222 x103 cells/µL
same,RBC,[1]; [9],8.33 ± 0.35 x106 cells/µL
same,WBC,[1]; [9],8.28 ± 0.31 x103 cells/µL
same,Remaining of intact drug (%),"[2]; 1 μM, incubation up to 4 hours",80.2 ± 0.3%
same,half-life at 1 μM,"[2]; mouse, read-out: Plasma Stability t1/2",> 240 min
same,Remaining of intact drug (%),"[3]; mice liver microsomes, 1 μM, incubation up to 60 minutes",80.7 ± 1.8%
same,"remaining at 0.5 h, 1 μM","[3]; mouse, liver microsomes, pH 7.4, mice microsomes, 30 min of incubation, read-out: Microsome stability (% remaining)",97.2%
same,half-life at 1 μM,"[3]; mouse, pH 7.4, mice liver microsomes, read-out: Plasma Stability t1/2 (microsome panel)",> 60 min
same,toxicity reflected by weight-loss of the animals,[4]; PO 30-60 mg/kg BID,No toxicity reflected by weight-loss of the animals was observed
same,tumor growth inhibition (TGI),[4]; oral 30 mg/kg BID,38.08%
same,tumor growth inhibition (TGI),[4]; oral 60 mg/kg BID,69.39%
